The first assay concerns the target T1, recombinant active human PAI-1 (Homo sapiens (Human), UniProt P05121). Briefly: Fluorometric PAI-1/uPA IC50 plate assay at pH 7.8. It is filed as biochemical. The following applies: physiologic buffer. As to the method:
To determine the efficacy of various synthesized compounds as PAI-1 inhibitors at pH 7.8, additional fluorometric plate assays were carried out to measure the half maximal inhibitory concentration (IC50) of these compounds on recombinant active human PAI-1 in vitro.
PAI-1 inhibitor compounds were dissolved in DMSO to a final concentration of (10-50 mM), depending upon solubility. […] Fluorescence, as a measure of the rate of AMC release by uPA, was read at the following wavelengths; excitation 370 nm, emission 440 nm. Controls included PAI-1 and uPA in the absence of compound and uPA alone. Percent PAI-1 inhibition was calculated using the following formula: [(uPA alone-uPA/PAI-1+ compound)/(uPA alone-PAI-1/uPA)]*100%. The IC50 was calculated using Graphit (IC50 0-100%).
T1 sequence (P05121 24-402): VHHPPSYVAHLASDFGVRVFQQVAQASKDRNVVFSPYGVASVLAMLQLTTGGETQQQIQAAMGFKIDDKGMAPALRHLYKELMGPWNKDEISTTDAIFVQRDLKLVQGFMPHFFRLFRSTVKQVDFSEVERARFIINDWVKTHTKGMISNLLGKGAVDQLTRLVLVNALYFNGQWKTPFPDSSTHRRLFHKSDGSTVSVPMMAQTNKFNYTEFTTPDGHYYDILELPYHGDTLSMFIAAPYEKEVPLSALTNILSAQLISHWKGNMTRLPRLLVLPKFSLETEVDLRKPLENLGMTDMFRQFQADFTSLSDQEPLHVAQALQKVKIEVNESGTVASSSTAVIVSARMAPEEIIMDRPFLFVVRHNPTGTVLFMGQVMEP
Turning to `O=S(=O)(c1ccc(O)c(O)c1)N(c1ccccc1)S(=O)(=O)c1ccc(O)c(O)c1` [C153], the IC50 is 0.7 µM.

With `CCCCCCCCN(S(=O)(=O)c1ccc(-c2ccc(OC(F)(F)F)cc2)cc1)S(=O)(=O)c1ccc(O)c(O)c1` [C173], the IC50 was determined as 19.2 µM. As for `CCCCCCCCN(CC(O)c1ccccc1)S(=O)(=O)c1ccc(O)c(O)c1` (stereo not drawn) [C175], the IC50 was 6.74 µM. For the compound `CCCCCCCCN(CCN(CCCCCCCC)S(=O)(=O)c1ccc(O)c(O)c1)S(=O)(=O)c1ccc(O)c(O)c1` [C176], the IC50 turned out to be 0.62 µM. On the same count and under the same terms, the same measure for `CCCCCCCCN(Cc1cccc(Cl)c1)S(=O)(=O)c1ccc(O)c(O)c1` [C177]: 5.11 µM; for `CCCCCCCCN(Cc1cccc(C(F)(F)F)c1)S(=O)(=O)c1ccc(O)c(O)c1` [C179]: 2.4 µM; for `CCCCCCCCN(CCCCCC)S(=O)(=O)c1ccc(O)c(O)c1` [C180]: 1.34 µM. In the case of `CCCCCCCN(S(=O)(=O)c1ccc(O)c(O)c1)S(=O)(=O)c1ccc(O)c(O)c1` [C182], the IC50 was found to be 0.033 µM. Take `CCCCCCCCCN(S(=O)(=O)c1ccc(O)c(O)c1)S(=O)(=O)c1ccc(O)c(O)c1` [C183]: the IC50 was 0.18 µM.

Turning to `CCCCCCCN(CCN(CCCCCCC)S(=O)(=O)c1ccc(O)c(O)c1)S(=O)(=O)c1ccc(O)c(O)c1` [C184], the IC50 was 0.59 µM.

On to `CCCCCCCCCN(CCN(CCCCCCCCC)S(=O)(=O)c1ccc(O)c(O)c1)S(=O)(=O)c1ccc(O)c(O)c1` [C185], for which the IC50 was 0.42 µM. Still for that read-out and setting: the same measure for `O=S(=O)(c1ccc(O)c(O)c1)N1CCC[C@H]1CCc1ccccc1` [C186]: 6.98 µM. On the same count and under the same terms, under `CCCCCCc1ccc(NS(=O)(=O)c2ccc(O)c(O)c2)cc1` [C187] stands 0.91 µM. Still for that read-out and setting: under `CCCCCCc1ccc(N(S(=O)(=O)c2ccc(O)c(O)c2)S(=O)(=O)c2ccc(O)c(O)c2)cc1` [C188] stands 0.12 µM; under `CCCCCCc1ccc(N(S(=O)(=O)c2ccc(CCC)cc2)S(=O)(=O)c2ccc(O)c(O)c2)cc1` [C189], 2.29 µM. As to `O=S(=O)(Nc1ccc(-c2cccc(F)c2)cc1)c1ccc(O)c(O)c1` [C190], the IC50 is 9.7 µM.

Turning to `CCCCCCCCN(S(=O)(=O)c1ccc(CCCCC)cc1)S(=O)(=O)c1ccc(O)c(O)c1` [C191], the IC50 came to 1.28 µM. Consider `O=C(Nc1ccccc1)[C@@H]1CCCN1S(=O)(=O)c1ccc(O)c(O)c1` [C193], for which the IC50 amounted to 552 µM.

Regarding `CCCCCCCCCCCCc1ccc(N(S(=O)(=O)c2ccc(O)c(O)c2)S(=O)(=O)c2ccc(O)c(O)c2)cc1` [C195], the IC50 came to 0.92 µM.

`CCCCCCCCCCN(CCN(C)S(=O)(=O)c1ccc(O)c(O)c1)S(=O)(=O)c1ccc(O)c(O)c1` [C196]: the IC50 stood at 0.45 µM. Take `O=S(=O)(c1ccccc1)N(CCc1ccc(O)c(O)c1)S(=O)(=O)c1ccc(O)c(O)c1` [C197]: the IC50 turned out to be 0.173 µM.

With `O=S(=O)(NCCc1ccc(O)c(O)c1)c1ccc(O)c(O)c1` [C198], the IC50 worked out at 0.051 µM. `O=C1S/C(=C\c2ccc(O)c(O)c2)C(=O)N1Cc1ccccc1` [C199]: the IC50 amounted to 5.36 µM. Still for that read-out and setting: under `CCCCN(C)C(=O)CSc1ccc(O)c(O)c1` [C200] stands 58.4 µM.

`CC(C)(C)n1nc(-c2ccccc2)nc1-c1ccc(O)c(O)c1` [C201, 4-(1-(tert-butyl)-3-phenyl-1H-1,2,4-triazol-5-yl)benzene-1,2-diol]: the IC50 was found to be 181 µM.

`O=C1S/C(=C\c2ccc(O)c(O)c2)C(=O)N1Cc1ccc(Br)cc1` [C203]: the IC50 was 17.1 µM. On the same count and under the same terms, the same measure for `O=C(OCC(CNS(=O)(=O)c1cccc(C(F)(F)F)c1)OC(=O)c1ccc(O)c(O)c1)c1ccc(O)c(O)c1` (stereo not drawn) [C204]: 0.035 µM; for `O=S(=O)(c1ccc(O)c(O)c1)N1CCc2ccccc21` [C205]: 5.05 µM; for `O=C1S/C(=C\c2ccc(O)c(O)c2)C(=O)N1Cc1cccc(Br)c1` [C206, (Z)-3-(3-bromobenzyl)-5-(3,4-dihydroxybenzylidene)thiazolidine-2,4-dione]: 4.96 µM. The same measure, in the same setting: the same measure for `O=C1S/C(=C\c2ccc(O)c(O)c2)C(=O)N1Cc1cccc(-c2ccc(OC(F)(F)F)cc2)c1` [C207, (Z)-5-(3,4-dihydroxybenzylidene)-3-((4′-(trifluoromethoxy)-[1,1′-biphenyl]-3-yl)methyl)thiazolidine-2,4-dione]: 16.8 µM.

Turning to `CC(C)(C)n1nc(-c2ccccc2)nc1Cc1ccc(O)c(O)c1` [C208], the IC50 is 77.2 µM.

As to `O=S(=O)(NCCc1ccc(O)c(O)c1)c1ccccc1` [C210], the IC50 was found to be 190 µM. In the case of `CCCCCc1nc(Cc2ccc(O)c(O)c2)n(C(C)(C)C)n1` [C220], the IC50 came out at 116 µM. Regarding `CC(C)(C)n1nc(C2CC2)nc1Cc1ccc(O)c(O)c1` [C221], the IC50 stood at 1610 µM. Still for that read-out and setting: under `CC(C)(C)n1nc(-c2ccc(O)cc2)nc1Cc1ccc(O)c(O)c1` [C222] stands 236 µM. Take `CCCCCc1nc(Cc2ccc(O)c(O)c2)n(C(C)(C)C)n1` [C223]: the IC50 came out at 125 µM. The same measure, in the same setting: the same measure for `CCCCCCCCN(S(=O)(=O)c1ccc(O)cc1)S(=O)(=O)c1ccc(O)c(O)c1` [C224]: 4.34 µM. The same measure, in the same setting: the same measure for `O=S(=O)(NCCCc1ccccc1)c1ccc(O)c(O)c1` [C232]: 13.3 µM; for `O=S(=O)(NCCc1ccccc1)c1ccc(O)c(O)c1` [C233]: 74.8 µM; for `O=C(OCCOC(=O)c1ccc(O)c(O)c1)c1cc(O)cc(O)c1` [C236]: 174 µM. The same measure, in the same setting: the same measure for `O=C(O)CCCCNS(=O)(=O)c1ccc(O)c(O)c1` [C249]: 663 µM. Consider `NC(=O)[C@H](Cc1ccccc1)NS(=O)(=O)c1ccc(O)c(O)c1` [C270], for which the IC50 is 29.5 µM. On the same count and under the same terms, under `O=C(O)CCCCCNS(=O)(=O)c1ccc(O)c(O)c1` [C271] stands 1.82 µM; under `O=C(O)[C@H](Cc1ccccc1)NS(=O)(=O)c1ccc(O)c(O)c1` [C272], 16.4 µM; under `O=C(O)[C@@H](NS(=O)(=O)c1ccc(O)c(O)c1)c1ccccc1` [C273], 55.6 µM. On the same count and under the same terms, under `O=C(O)[C@H](NS(=O)(=O)c1ccc(O)c(O)c1)c1ccccc1` [C274] stands 73.6 µM; under `O=C(O)[C@@H](Cc1ccccc1)NS(=O)(=O)c1ccc(O)c(O)c1` [C275], 30.5 µM. For `CCCCCCCCN(S(=O)(=O)c1cccc(O)c1)S(=O)(=O)c1ccc(O)c(O)c1` [C292], the IC50 is 4.94 µM. On the same count and under the same terms, the same measure for `CCCCCCCCN(S(=O)(=O)c1cccc(O)c1)S(=O)(=O)c1cccc(O)c1` [C293]: 77.6 µM; for `CCCCCCCCN(S(=O)(=O)c1ccc(O)cc1)S(=O)(=O)c1cccc(O)c1` [C294]: 120 µM; for `O=S(=O)(NCc1ccc(Cl)c(C(F)(F)F)c1)c1ccc(O)c(O)c1` [C303]: 13.6 µM.

For the compound `O=C(CCc1ccc(O)c(O)c1)NCc1ccc(Cl)c(C(F)(F)F)c1` [C330, N-(4-chloro-3-(trifluoromethyl)benzyl)-3-(3,4-dihydroxyphenyl)propanamide], the IC50 was determined as 423 µM.

In another assay the target is T1, recombinant active human PAI-1. The experiment in a line: Fluorometric PAI-1/tPA IC50 plate assay at pH 7.8. In kind it is biochemical. Conditions: physiologic buffer. As to the method: Additional fluorometric plate assays were carried out, as set out below, to determine the IC50 of various synthesized compounds as PAI-1 inhibitors.
PAI-1 inhibitor compounds were dissolved in DMSO to a final concentration of (10-50 mM), depending upon solubility. […] Tissue type PA activity in each reaction mixture was determined by adding Phe-Gly-Arg-AMC fluorogenic substrate (100 μL of 100 μM) (Centerchem). The rate of AMC release by tPA was measured at an excitation wavelength of 370 nm and an emission wavelength of 440 nm. Controls included PAI-1 and tPA in the absence of compound and tPA alone. Percent PAI-1 inhibition was calculated using the following formula: [(tPA alone-tPA/PAI-1+ compound)/(tPA alone-PAI-1/tPA)]*100%. The IC50 is calculated using Graphit (IC50 0-100%).
On to `O=S(=O)(c1ccc(O)c(O)c1)N(c1ccccc1)S(=O)(=O)c1ccc(O)c(O)c1` [C153], for which the IC50 was found to be 1.02 µM.

The next assay has the same target. Briefly: Fluorometric PAI-1/uPA IC50 plate assay at pH 7.4. In kind it is biochemical. The following applies: physiologic buffer (40 mM HEPES, 100 mM NaCl, 0.05% Tween-20, 10% DMSO), read-out: PAI-1/uPA IC50 in buffer. As to the method: To determine the efficacy of various synthesized compounds as PAI-1 inhibitors, a fluorometric plate assay was carried out to measure the half maximal inhibitory concentration (IC50) of these compounds on recombinant active human PAI-1 in vitro. An IC50 is a measure of the effectiveness of a compound in inhibiting biological or biochemical function. Stated another way, IC50 represents the concentration of a drug that is required for 50% inhibition in vitro.
PAI-1 inhibitor compounds were dissolved in DMSO to a final concentration of (10-50 mM), depending upon solubility. Compounds were then diluted in physiologic buffer (40 mM HEPES, 100 mM NaCl, 0.05% Tween-20, pH7.4) containing 10% DMSO and a dilution series (from 0 to 1000 uM depending on solubility) was prepared. 80 μL of compound was added per well to a 96-well black, opaque microplate in duplicate. 10 μL of 20 nM Recombinant active human PAI-1 (Molecular Innovations) in physiologic buffer (40 mM HEPES, 100 mM NaCl, 0.05% Tween-20, 10% DMSO, pH 7.4), or […] physiologic buffer with 10% human plasma, was added and the mixture was agitated for 15 minutes at room temperature. 10 μL of 25 nM uPA (Rheotromb®) was added to each reaction well and the plate was agitated for an additional 30 minutes at room temperature. Tripeptide aminomethylcoumarin Gly-Gly-Arg-AMC (Calbiochem) fluorogenic substrate (100 μL of 100 μM) was then added and residual uPA activity was determined based upon cleavage of this substrate. The rate of AMC release by uPA (fluorescence) was measured at an excitation wavelength of 370 nm and an emission wavelength of 440 nm. Controls included PAI-1 and uPA in the absence of compound and uPA alone. Percent PAI-1 inhibition was calculated using the following formula: [(uPA alone-uPA/PAI-1+ compound)/(uPA alone-PAI-1/uPA)]*100%. The IC50 was calculated using Graphit (IC50 0-100%).
As for `CCCCCCCCN(S(=O)(=O)c1cccc(O)c1)S(=O)(=O)c1ccc(O)c(O)c1` [C292], the IC50 came out at 68 µM.

`CCCCCCCCN(S(=O)(=O)c1cccc(O)c1)S(=O)(=O)c1cccc(O)c1` [C293]: the IC50 is 123 µM. As to `CCCCCCCCN(S(=O)(=O)c1ccc(O)cc1)S(=O)(=O)c1cccc(O)c1` [C294], the IC50 was determined as 234 µM. Still for that read-out and setting: under `O=S(=O)(NCc1ccc(Cl)c(C(F)(F)F)c1)c1ccc(O)c(O)c1` [C303] stands 12.6 µM; under `O=C(CCc1ccc(O)c(O)c1)NCc1ccc(Cl)c(C(F)(F)F)c1` [C330, N-(4-chloro-3-(trifluoromethyl)benzyl)-3-(3,4-dihydroxyphenyl)propanamide], 365 µM.

The assay is the same for the next values; noted with them: physiologic buffer with 1.5% BSA (15 mg/mL), read-out: PAI-1/uPA IC50 in 1.5% BSA buffer.
Regarding `O=C(CCc1ccc(O)c(O)c1)NCc1ccc(Cl)c(C(F)(F)F)c1` [C330, N-(4-chloro-3-(trifluoromethyl)benzyl)-3-(3,4-dihydroxyphenyl)propanamide], the IC50 was determined as 112 µM.

The same assay, now with this note: physiologic buffer with 10% human plasma, read-out: PAI-1/uPA IC50 in 10% plasma buffer.
With `O=C(CCc1ccc(O)c(O)c1)NCc1ccc(Cl)c(C(F)(F)F)c1` [C330, N-(4-chloro-3-(trifluoromethyl)benzyl)-3-(3,4-dihydroxyphenyl)propanamide], the IC50 came out at 115 µM.

Values taken from patent US9718760B2, “Plasminogen activator inhibitor-1 inhibitors and methods of use thereof” (THE REGENTS OF THE UNIVERSITY OF MICHIGAN, priority 2012, dated 2017).
